Test results reported in patent US12275731B2, “Azaindole inhibitors of wild-type and mutant forms of LRRK2” (DANA-FARBER CANCER INSTITUTE, INC., priority 2018, dated 2025).

Key:
Assay in all cases: KinomeScan profiling
Type in all cases: binding
GCN2(Kin.Dom.2, S808G) = target: T1, GCN2(Kin.Dom.2, S808G) (Homo sapiens, UniProt Q9P2K8, S808G); conditions: read-out: % control
T1 construct: GCN2(Kin.Dom.2, S808G)
T1 sequence (Q9P2K8 590-1001 S808G limits assumed): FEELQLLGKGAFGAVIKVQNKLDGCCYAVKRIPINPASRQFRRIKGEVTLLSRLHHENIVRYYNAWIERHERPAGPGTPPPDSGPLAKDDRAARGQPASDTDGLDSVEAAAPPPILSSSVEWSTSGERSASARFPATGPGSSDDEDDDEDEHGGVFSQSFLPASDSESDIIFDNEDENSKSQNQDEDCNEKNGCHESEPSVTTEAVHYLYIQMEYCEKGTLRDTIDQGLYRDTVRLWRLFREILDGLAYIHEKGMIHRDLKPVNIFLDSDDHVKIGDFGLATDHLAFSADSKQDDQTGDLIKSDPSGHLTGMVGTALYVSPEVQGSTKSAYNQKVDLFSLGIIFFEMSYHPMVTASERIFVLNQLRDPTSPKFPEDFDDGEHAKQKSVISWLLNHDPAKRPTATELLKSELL
Summary of the method: (§1)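 First, compounds in DMSO are added at 1 μM to each of 468 kinase assays. Next, RLU signals are normalised between positive control (0%) and DMSO (100%). Finally, kinases under 35% are flagged active.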

MST3 = MST3 (Homo sapiens, UniProt Q9Y6E0); conditions: MST3, 1 μM; read-out: % control
Summary of the method: as §1

PIK3CA(M1043I) = target: T2, PIK3CA(M1043I) (Homo sapiens, UniProt P42336, M1043I); conditions: read-out: % control
T2 construct: purchased KinomeScan® (panel service)
Summary of the method: as §1

PIK3CD = target: T3, PIK3CD (Homo sapiens, UniProt O00329); conditions: read-out: % control
T3 construct: purchased KinomeScan® (panel service)
T3 sequence (O00329 1-1044): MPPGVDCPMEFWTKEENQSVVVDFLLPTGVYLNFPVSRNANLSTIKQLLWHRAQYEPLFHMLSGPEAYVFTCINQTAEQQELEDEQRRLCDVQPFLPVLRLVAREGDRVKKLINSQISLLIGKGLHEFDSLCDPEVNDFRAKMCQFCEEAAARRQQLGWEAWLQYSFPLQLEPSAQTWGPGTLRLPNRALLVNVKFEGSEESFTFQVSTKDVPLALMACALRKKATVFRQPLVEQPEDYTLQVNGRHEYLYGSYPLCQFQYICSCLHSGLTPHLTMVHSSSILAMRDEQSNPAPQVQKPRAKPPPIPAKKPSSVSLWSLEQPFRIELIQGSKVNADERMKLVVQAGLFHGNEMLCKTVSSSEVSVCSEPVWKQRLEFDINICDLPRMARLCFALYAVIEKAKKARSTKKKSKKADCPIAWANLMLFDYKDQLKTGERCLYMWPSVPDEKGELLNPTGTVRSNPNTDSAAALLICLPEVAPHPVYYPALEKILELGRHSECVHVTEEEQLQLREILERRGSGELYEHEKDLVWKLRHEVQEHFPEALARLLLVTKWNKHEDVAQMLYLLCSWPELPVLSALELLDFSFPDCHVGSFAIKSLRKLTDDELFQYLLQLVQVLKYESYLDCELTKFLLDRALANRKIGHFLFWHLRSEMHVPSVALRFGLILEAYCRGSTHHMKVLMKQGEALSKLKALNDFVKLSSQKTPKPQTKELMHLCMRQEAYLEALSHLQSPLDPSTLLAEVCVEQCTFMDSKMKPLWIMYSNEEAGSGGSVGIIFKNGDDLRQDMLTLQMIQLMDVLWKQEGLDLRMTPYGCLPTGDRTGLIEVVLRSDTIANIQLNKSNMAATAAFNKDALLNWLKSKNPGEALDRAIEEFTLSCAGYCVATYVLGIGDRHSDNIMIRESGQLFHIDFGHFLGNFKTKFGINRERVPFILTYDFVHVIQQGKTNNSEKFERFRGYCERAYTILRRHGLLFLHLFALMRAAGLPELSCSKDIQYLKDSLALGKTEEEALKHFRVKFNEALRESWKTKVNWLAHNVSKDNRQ
Summary of the method: as §1

PLK4 = target: T4, PLK4 (Homo sapiens, UniProt O00444); conditions: PLK4, 1 μM; read-out: % control
T4 sequence (O00444 1-970): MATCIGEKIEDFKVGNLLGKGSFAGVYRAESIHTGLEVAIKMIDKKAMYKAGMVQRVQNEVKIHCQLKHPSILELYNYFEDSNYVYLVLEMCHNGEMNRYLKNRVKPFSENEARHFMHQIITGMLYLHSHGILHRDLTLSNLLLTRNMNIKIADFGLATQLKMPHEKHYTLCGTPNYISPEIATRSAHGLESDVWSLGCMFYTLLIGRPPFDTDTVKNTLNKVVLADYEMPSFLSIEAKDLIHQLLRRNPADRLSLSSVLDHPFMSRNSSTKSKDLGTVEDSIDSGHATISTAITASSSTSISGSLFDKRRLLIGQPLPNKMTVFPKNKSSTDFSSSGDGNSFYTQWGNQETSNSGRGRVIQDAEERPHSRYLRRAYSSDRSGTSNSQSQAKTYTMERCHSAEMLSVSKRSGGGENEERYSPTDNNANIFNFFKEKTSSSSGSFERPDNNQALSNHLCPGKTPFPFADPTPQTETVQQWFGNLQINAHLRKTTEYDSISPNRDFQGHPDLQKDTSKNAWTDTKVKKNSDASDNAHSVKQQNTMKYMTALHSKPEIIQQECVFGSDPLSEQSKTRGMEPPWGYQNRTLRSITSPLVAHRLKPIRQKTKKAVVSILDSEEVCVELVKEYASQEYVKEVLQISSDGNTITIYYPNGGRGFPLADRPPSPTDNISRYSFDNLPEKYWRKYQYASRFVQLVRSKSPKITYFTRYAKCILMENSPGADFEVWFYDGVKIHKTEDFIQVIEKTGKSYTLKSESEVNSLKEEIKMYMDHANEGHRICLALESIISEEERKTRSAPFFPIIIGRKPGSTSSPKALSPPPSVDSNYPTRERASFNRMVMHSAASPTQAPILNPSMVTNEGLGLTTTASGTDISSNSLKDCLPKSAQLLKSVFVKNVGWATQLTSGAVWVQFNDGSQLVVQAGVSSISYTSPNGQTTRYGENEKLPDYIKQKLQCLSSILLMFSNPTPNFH
Summary of the method: as §1

TNK2 = TNK2 (Homo sapiens, UniProt Q07912); conditions: TNK2, 1 μM; read-out: % control
Summary of the method: as §1

Chain of MST3 (Q9Y6E0 whole entry): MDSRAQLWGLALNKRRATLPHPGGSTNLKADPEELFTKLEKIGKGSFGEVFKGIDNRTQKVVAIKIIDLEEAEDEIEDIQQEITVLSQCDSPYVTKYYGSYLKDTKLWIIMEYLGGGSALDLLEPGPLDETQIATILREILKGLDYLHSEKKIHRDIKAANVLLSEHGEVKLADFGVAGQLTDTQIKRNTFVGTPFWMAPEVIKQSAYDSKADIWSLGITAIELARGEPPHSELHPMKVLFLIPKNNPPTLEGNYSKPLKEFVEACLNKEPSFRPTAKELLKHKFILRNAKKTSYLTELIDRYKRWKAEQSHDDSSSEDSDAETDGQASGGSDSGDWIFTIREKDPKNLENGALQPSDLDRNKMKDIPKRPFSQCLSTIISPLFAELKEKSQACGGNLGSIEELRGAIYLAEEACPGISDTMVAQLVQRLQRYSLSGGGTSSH
T2 sequence (P42336 whole entry M1043I): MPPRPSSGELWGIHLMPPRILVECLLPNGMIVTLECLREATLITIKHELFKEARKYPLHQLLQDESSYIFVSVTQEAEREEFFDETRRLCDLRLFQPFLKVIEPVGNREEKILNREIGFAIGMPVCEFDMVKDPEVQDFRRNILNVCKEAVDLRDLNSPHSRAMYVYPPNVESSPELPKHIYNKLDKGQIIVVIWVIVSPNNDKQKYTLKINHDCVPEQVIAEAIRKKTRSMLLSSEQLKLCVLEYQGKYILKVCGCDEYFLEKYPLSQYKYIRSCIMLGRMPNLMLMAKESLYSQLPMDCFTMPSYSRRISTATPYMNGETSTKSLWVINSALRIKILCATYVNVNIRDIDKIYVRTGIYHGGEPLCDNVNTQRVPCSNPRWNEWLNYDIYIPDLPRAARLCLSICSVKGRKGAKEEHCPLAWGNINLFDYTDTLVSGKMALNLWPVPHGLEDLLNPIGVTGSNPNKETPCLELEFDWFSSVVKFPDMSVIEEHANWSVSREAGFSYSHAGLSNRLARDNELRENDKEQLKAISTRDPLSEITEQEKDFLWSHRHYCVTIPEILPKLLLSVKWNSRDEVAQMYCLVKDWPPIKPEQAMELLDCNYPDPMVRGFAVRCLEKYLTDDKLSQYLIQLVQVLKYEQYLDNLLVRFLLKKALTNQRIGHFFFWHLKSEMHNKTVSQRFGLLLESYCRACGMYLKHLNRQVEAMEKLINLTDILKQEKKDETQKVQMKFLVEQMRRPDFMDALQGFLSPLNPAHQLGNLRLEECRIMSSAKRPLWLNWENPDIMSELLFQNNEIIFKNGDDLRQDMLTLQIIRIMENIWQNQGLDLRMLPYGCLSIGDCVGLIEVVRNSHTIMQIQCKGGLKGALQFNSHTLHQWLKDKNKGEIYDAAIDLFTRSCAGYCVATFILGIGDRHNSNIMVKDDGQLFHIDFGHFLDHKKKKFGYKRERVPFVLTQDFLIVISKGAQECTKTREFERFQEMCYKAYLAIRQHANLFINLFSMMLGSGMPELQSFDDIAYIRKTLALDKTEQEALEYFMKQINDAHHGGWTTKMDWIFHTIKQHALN
Chain of TNK2 (Q07912 whole entry): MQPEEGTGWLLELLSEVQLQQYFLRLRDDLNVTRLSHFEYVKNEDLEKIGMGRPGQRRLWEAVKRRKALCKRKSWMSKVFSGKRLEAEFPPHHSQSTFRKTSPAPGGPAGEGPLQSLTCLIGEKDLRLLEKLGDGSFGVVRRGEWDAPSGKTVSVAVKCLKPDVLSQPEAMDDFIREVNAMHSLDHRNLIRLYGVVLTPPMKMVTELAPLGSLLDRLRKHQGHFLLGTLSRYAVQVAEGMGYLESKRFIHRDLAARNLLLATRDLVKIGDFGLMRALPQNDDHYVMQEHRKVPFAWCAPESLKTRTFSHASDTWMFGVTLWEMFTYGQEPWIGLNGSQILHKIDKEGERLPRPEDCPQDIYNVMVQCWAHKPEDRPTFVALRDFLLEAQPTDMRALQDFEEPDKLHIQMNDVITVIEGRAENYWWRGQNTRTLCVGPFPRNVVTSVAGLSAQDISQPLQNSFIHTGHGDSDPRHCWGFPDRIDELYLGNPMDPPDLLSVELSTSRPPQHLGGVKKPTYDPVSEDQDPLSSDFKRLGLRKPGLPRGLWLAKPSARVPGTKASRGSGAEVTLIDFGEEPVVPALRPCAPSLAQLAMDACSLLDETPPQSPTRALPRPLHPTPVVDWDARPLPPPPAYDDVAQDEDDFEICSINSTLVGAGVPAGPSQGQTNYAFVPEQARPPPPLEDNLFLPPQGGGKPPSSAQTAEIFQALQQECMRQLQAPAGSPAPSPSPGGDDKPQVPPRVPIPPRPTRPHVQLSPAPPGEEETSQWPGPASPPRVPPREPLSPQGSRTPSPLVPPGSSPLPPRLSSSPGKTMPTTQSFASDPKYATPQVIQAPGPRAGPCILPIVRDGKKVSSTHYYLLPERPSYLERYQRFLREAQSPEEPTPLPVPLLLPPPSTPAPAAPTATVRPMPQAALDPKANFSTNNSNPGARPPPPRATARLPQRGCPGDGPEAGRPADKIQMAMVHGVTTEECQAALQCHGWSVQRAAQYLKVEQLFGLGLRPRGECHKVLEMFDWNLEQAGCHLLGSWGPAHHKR

## CNc1c(-c2cnn([C@H]3CCN(C(C)=O)C[C@@H]3F)c2)cnc2[nH]cc(Cl)c12 [Compound 77, 1-((3S,4S)-4-(4-(3-chloro-4-(methylamino)-1H-pyrrolo[2,3-b]pyridin-5-yl)-1H-pyrazol-1-yl)-3-fluoropiperidin-1-yl)ethan-1-one]
GCN2(Kin.Dom.2, S808G)
  remaining binding at 1 µM: 34%
MST3
  remaining binding at 1 µM: 72%
PIK3CA(M1043I)
  remaining binding at 1 µM: 66%
PIK3CD
  remaining binding at 1 µM: 85%
PLK4
  remaining binding at 1 µM: 27%
TNK2
  remaining binding at 1 µM: 100%

## CNc1c(-c2ccc(C(=O)N3CCC(N4CCOCC4)CC3)cc2)cnc2[nH]cc(Cl)c12 [Compound 96, (4-(3-chloro-4-(methylamino)-1H-pyrrolo[2,3-b]pyridin-5-yl)phenyl)(4-morpholinopiperidin-1-yl)methanone]
GCN2(Kin.Dom.2, S808G)
  remaining binding at 1 µM: 54%
MST3
  remaining binding at 1 µM: 74%
PIK3CA(M1043I)
  remaining binding at 1 µM: 81%
PIK3CD
  remaining binding at 1 µM: 84%
PLK4
  remaining binding at 1 µM: 27%
TNK2
  remaining binding at 1 µM: 94%

## O=C(c1ccc(-c2cnc3[nH]cc(Cl)c3c2NC2CCCC2)cc1)N1CCC(N2CCOCC2)CC1 [Compound 101, (4-(3-chloro-4-(cyclopentylamino)-1H-pyrrolo[2,3-b]pyridin-5-yl)phenyl)(4-morpholinopiperidin-1-yl)methanone]
GCN2(Kin.Dom.2, S808G)
  remaining binding at 1 µM: 100%
MST3
  remaining binding at 1 µM: 86%
PIK3CA(M1043I)
  remaining binding at 1 µM: 100%
PIK3CD
  remaining binding at 1 µM: 100%
PLK4
  remaining binding at 1 µM: 78%
TNK2
  remaining binding at 1 µM: 98%
